Experimental data taken from patent US20050033056A1, “Hydroxylated indole derivatives and uses thereof” (priority 2001, published 2005).
“Also recorded” adds a separate entry of the source. Where two headings read alike, the source gives them in different places.

Columns and labels:
CYP2D6 = CYP2D6 (Homo sapiens, UniProt P10635); assay: CYP inhibition in HLM: bufuralol 1'-hydroxylation; format: in vitro ADME; design: tissue Gentest Corp. (Woburn, Mass.); host or cells: pooled human liver microsomes; details: in the presence of Compound 1, concentration-dependent
Description: The incubations were carried out in test tubes (12.0×75 mm). The incubation mixtures (250 μL) contained 0.5 mg of HLM protein, 50 (CYP1A2 and CYP2E1) or 25 (CYP2C9, CYP2C19, CYP2D6 and CYP3A4) pmol of recombinant human CYPs, Compound 1 (10 or 50 μM), probe substrate (R—, S-warfarin, chlorzoxazone, S-mephenyloin, or bufuralol) at different concentrations, and 0.5 mg of NADPH in 50 mM Tris buffer containing 15 mM MgCl2 (pH 7.4). Compound 1 was added to the reaction mixture 5 minutes prior to the addition of the probe substrate. […]
The quantification was based on the calibration curves, and the quality control (QC) samples were applied to ensure the quality of the experiments. […]
3. […] Multiple reaction monitoring (MRM) was applied for the quantification. […]
Data were acquired and analyzed by ChemStation (Version 6.03, Hewlett Packard, Waldbronn, Germany) for 6-, 7-, and 10-hydroxywarfarin and 6-hydroxychlorzoxazone, and MacQuan (Version 1.6, PE Biosystem, Foster City, Calif.) for 1′-hydroxybufuralol and 4′-hydroxymephenytoin. Quantification was based on peak area ratios of metabolites over the respective IS against the respective concentration of the metabolites. […] The metabolic rates were determined using Excel (Microsoft Office 97, Microsoft Corporation, Redmond, Wash.) or SigmaPlot (Version 6.00, SPSS Inc. Chicago, Ill.). […]

[1] = molecular target: T1, cDNA-expressed recombinant CYP2D6 (Homo sapiens, UniProt P10635); assay: Apparent Ki with recombinant CYP2D6 (bufuralol 1'-hydroxylation; Dixon plots, SNLR); format: in vitro ADME; details: for Ki: recombinant CYP2D6
T1 construct: purchased Gentest Corp. (Woburn, Mass.); host or cells: insect cells (microsomal preparation)
Description: If inhibition was detected, the inhibitory potency was determined using recombinant CYPs. Compound 1 appeared to inhibit the activities of CYP2D6 and CYP2C19. Therefore, three concentrations of S-mephenyloin (30, 80, and 200 μM) and bufuralol (5, 10, and 40 μM), and a range of concentrations (0-200 μM) of Compound 1 were used for the construction of Dixon plots and simultaneously nonlinear regression (SNLR) analyses were performed. The incubation conditions and sample preparations were the same as previously described.
3. CYP2D6-mediated bufuralol 1′-hydroxylation (Boobis et al., Bioch. Pharmacol. 34:65-71, 1985): The HPLC system was interfaced with a SCIEX API2000 triple quadrupole mass spectrometer (PE Biosystem, Foster City, Calif.). A Sulpelco Discovery C18 column (150×2.1 mm) and isocratic mobile phase was applied. The mobile phase, 10 mM ammonium acetate-acetonitrile/60:40, was run at 0.2 mL/minute. The operation of the LC/MS/MS was controlled by use of software, MacChrom (Version 1.6). The MS/MS was operated at positive ESI with 5.5 kV ionization potential and 500° C. ion source temperature. Multiple reaction monitoring (MRM) was applied for the quantification. The MRM transition ions were m/z 278→186 for 1′-hydroxybufuralol, and m/z 266→234 for the internal standard (1S) albendazole.
Data were acquired and analyzed by ChemStation (Version 6.03, Hewlett Packard, Waldbronn, Germany) for 6-, 7-, and 10-hydroxywarfarin and 6-hydroxychlorzoxazone, and MacQuan (Version 1.6, PE Biosystem, Foster City, Calif.) for 1′-hydroxybufuralol and 4′-hydroxymephenytoin. Quantification was based on peak area ratios of metabolites over the respective IS against the respective concentration of the metabolites. The standard curves were generated by linear regression with (6-, 7-, and 10-hydroxywarfarin, 1′-hydroxybufuralol, and 4′-hydroxymephenytoin) or without (6-hydroxychlorzoxazone) a weighting factor (1/x^2). The metabolic rates were determined using Excel (Microsoft Office 97, Microsoft Corporation, Redmond, Wash.) or SigmaPlot (Version 6.00, SPSS Inc. Chicago, Ill.). […]

T1 sequence (P10635 whole entry): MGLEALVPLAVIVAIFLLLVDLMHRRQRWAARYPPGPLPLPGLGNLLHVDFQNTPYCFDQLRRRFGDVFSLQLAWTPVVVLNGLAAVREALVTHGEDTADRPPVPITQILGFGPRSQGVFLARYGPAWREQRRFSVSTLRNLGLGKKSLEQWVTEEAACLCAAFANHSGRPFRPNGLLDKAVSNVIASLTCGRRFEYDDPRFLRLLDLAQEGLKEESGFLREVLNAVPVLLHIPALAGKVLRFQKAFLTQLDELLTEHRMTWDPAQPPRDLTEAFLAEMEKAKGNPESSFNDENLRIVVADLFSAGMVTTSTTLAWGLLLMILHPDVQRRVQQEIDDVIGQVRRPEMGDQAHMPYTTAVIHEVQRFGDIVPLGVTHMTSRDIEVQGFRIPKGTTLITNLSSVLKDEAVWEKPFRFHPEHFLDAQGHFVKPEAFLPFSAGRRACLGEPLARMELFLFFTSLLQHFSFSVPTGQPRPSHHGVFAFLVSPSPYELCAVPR
CYP2D6, sequence (P10635 whole entry): as above

For `CNC(=O)Cc1ccc2ccn(C3CCN(CCc4ccccc4F)CC3)c2c1` [Compound 1, N-methyl-[1-[1-(2-fluorophenethyl)piperidine-4-yl]-1H-indol-6-yl] acetamide], the “effect on CYP2D6-mediated bufuralol 1'-hydroxylation activity (in words)” value (CYP2D6) was “significantly reduced”, the “type of inhibition of CYP2D6” value ([1]; Dixon plots and SNLR analyses) was “competitive inhibitor; also recorded: primarily, if not fully, competitive” and the Ki ([1]; Dixon plots, bufuralol 5, 10, 40 μM, read-out: apparent Ki, CYP2D6, estimated by Dixon plots) was about 20 µM. It also gave a Ki ([1]; SNLR, competitive inhibition model, read-out: apparent Ki, CYP2D6 inhibition, determined by SNLR) of 15 µM.
